Test results taken from US8748624B2, “Picolinamido-propanoic acid derivatives useful as glucagon receptor antagonists” (Janssen Pharmaceutica NV, priority 2011, dated 2014).
pKi: −log10 of the molar value.

Legend:
[1] = target: human glucagon receptor (GCGR) (Homo sapiens (Human), UniProt P47871); assay: Inhibition of 125I-glucagon binding to membranes from HEK293 cells expressing the human glucagon receptor; conditions: membranes of hGluc-1 HEK cells, 125I-glucagon 0.3 nM
Outline: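 Compound displacement of ¹²⁵I-glucagon (0.3 nM) was run for 2 h at room temperature in 50 mM HEPES pH 7.4 with 5 mM MgCl2, 1 mM CaCl2 and 0.2% BSA, using 6 μg/well membranes from stably transfected hGCGR HEK293 cells. Filter-bound counts gave IC50s, expressed as Ki.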

[2] = target: human GCGR (Homo sapiens (Human), UniProt P47871); assay: Cellular functional assay, cAMP readout (glucagon-stimulated cAMP in HEK293 cells expressing human GCGR); format: cell-based; conditions: hGluc-1 HEK cells
human GCGR, sequence (P47871 26-477): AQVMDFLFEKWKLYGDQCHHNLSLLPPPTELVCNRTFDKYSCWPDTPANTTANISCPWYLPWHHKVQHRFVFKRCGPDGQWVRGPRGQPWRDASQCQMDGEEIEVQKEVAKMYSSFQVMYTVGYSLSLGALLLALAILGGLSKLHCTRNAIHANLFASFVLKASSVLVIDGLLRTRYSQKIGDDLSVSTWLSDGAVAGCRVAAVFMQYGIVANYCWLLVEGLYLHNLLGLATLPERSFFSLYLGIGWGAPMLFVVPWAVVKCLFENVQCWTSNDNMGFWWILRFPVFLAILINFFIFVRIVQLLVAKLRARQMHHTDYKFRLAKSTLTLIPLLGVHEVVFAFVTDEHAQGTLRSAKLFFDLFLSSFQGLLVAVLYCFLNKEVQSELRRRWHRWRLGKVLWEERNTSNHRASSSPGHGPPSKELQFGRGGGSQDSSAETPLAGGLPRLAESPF
Outline: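 HEK293 cells stably transfected with full-length human GCGR were exposed to compound for 30 min before a 5-min challenge with […] (final) glucagon. Readout was TR-FRET (LANCE) cAMP versus standard curve; IC50s fitted by non-linear regression and converted to Ki values.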

[3] = 2 hours room temperature, IC50 converted to Ki, average if tested more than once
[4] = LANCE TR-FRET, IC50 converted to Ki, average if tested more than once
[5] = meta-substituted comparative compounds (Table 3)

human glucagon receptor (GCGR), sequence (P47871 26-477): as above

Structure (SMILES) | pKi [1, 3] | pKi [2, 4] | pKi [1, 5] | pKi [2, 5]
O=C(O)CCNC(=O)c1ccc(-c2cc(F)c(F)cc2C(=O)Nc2ccc(-c3ccc(C(F)(F)F)cc3)cc2)cn1 [Compound 96, 3-(5-(4,5-difluoro-2-((4′-(trifluoromethyl)-[1,1′-biphenyl]-4-yl)carbamoyl)phenyl)picolinamido)propanoic acid] | 7.47 | 6.76 |  | 
O=C(O)CCNC(=O)c1ccc(-c2cc(Cl)ccc2CNc2ccc(-c3ccc(Cl)c(F)c3)cc2F)cn1 [Compound 13, 3-(5-(5-chloro-2-(((4′-chloro-3,3′-difluoro-[1,1′-biphenyl]-4-yl)amino)methyl)phenyl)picolinamido)propanoic acid] | 7.41 | 6.51 |  | 
O=C(O)CCNC(=O)c1ccc(-c2cc(Cl)ccc2CNc2ccc(-c3cccc(C(F)(F)F)c3)cc2)cn1 [Compound 130, 3-(5-(5-chloro-2-(((3′-(trifluoromethyl)-[1,1′-biphenyl]-4-yl)amino)methyl)phenyl)picolinamido)propanoic acid] | 7.20 | 6.41 |  | 
N#Cc1cc(NCc2cc(F)c(F)cc2-c2ccc(C(=O)NCCC(=O)O)nc2)ccc1-c1ccc(Cl)cc1Cl [Compound 114, 3-(5-(2-(((2′,4′-dichloro-2-cyano-[1,1′-biphenyl]-4-yl)amino)methyl)-4,5-difluorophenyl)picolinamido)propanoic acid] | 7.39 | 7.13 |  | 
O=C(O)CCNC(=O)c1ccc(-c2ccccc2CNc2ccc(-c3ccc(C(F)(F)F)cc3)cc2)cn1 [Compound 9] | 7.02 | 6.26 |  | 
O=C(O)CCNC(=O)c1ccc(-c2cc(Cl)ccc2CNc2ccc(-c3ccc(F)cc3C(F)(F)F)cc2)cn1 [Compound 149, 3-(5-(5-chloro-2-(((4′-fluoro-2′-(trifluoromethyl)-[1,1′-biphenyl]-4-yl)amino)methyl)phenyl)picolinamido)propanoic acid] | 7.40 | 6.37 |  | 
O=C(O)CCNC(=O)c1ccc(-c2cc(Cl)ccc2CNc2ccc(-c3ccc(C(F)(F)F)cc3)c(F)c2)cn1 [Compound 90, 3-(5-(5-chloro-2-(((2-fluoro-4′-(trifluoromethyl)-[1,1′-biphenyl]-4-yl)amino)methyl)phenyl)picolinamido)propanoic acid] | 7.47 | 6.55 |  | 
O=C(O)CCNC(=O)c1ccc(-c2cc(Cl)ccc2CNc2ccc(-c3ccc(Cl)cc3)cc2F)cn1 [Compound 12, 3-(5-(5-chloro-2-(((4′-chloro-3-fluoro-[1,1′-biphenyl]-4-yl)amino)methyl)phenyl)picolinamido)propanoic acid] | 7.28 | 6.30 |  | 
COc1ccc(-c2ccc(NCc3cc(Cl)cc(-c4ccc(C(=O)NCCC(=O)O)nc4)c3)cc2)cc1 [Compound M2, 3-(5-(3-chloro-5-(((4′-methoxy-[1,1′-biphenyl]-4-yl)amino)methyl)phenyl)picolinamido)propanoic acid, reference compound] |  |  | < 5.57 | < 4.98
O=C(O)CCNC(=O)c1ccc(-c2ccccc2CNc2ccc(-c3ccccc3)cc2)cn1 [Compound 1, 3-(5-(2-(([1,1′-biphenyl]-4-ylamino)methyl)phenyl)picolinamido)propanoic acid] | < 5.27 | < 4.98 |  | 
O=C(O)CCNC(=O)c1ccc(-c2cc(C3=CCCCC3)ccc2CNc2ccc(-c3ccc(Cl)cc3Cl)cc2)cn1 [Compound 176, 3-(5-(4-(((2′,4′-dichloro-[1,1′-biphenyl]-4-yl)amino)methyl)-2′,3′,4′,5′-tetrahydro-[1,1′-biphenyl]-3-yl)picolinamido)propanoic acid] | 7.40 | 6.80 |  | 
CC(C)(C)c1ccc(-c2ccc(NCc3ccc(Cl)cc3-c3ccc(C(=O)NCCC(=O)O)nc3)cc2)cc1 [Compound 59, 3-(5-(2-(((4′-(tert-butyl)-[1,1′-biphenyl]-4-yl)amino)methyl)-5-chlorophenyl)picolinamido)propanoic acid] | 7.14 | 6.50 |  | 
O=C(O)CCNC(=O)c1ccc(-c2cc(F)ccc2CNc2ccc(-c3ccc(C(F)(F)F)cc3)c(F)c2)cn1 [Compound 56, 3-(5-(5-fluoro-2-(((2-fluoro-4′-(trifluoromethyl)-[1,1′-biphenyl]-4-yl)amino)methyl)phenyl)picolinamido)propanoic acid] | 7.01 | 6.51 |  | 
O=C(O)CCNC(=O)c1ccc(-c2cc(Cl)ccc2CNc2ccc(-c3ccc(Cl)c(Cl)c3)cc2)cn1 [Compound 58, 3-(5-(5-chloro-2-(((3′,4′-dichloro-[1,1′-biphenyl]-4-yl)amino)methyl)phenyl)picolinamido)propanoic acid] | 7.33 | 7.23 |  | 
O=C(O)CCNC(=O)c1ccc(-c2cc(C(F)(F)F)ccc2CNc2ccc(-c3cccc(F)c3)cc2)cn1 [Compound 62, 3-(5-(2-(((3′-fluoro-[1,1′-biphenyl]-4-yl)amino)methyl)-5-(trifluoromethyl)phenyl)picolinamido)propanoic acid] | 7.43 | 6.76 |  | 

More lines, in order of rising pKi [1, 3], values ahead:

pKi [1, 3] | pKi [2, 4] | pKi [1, 5] | pKi [2, 5] | Structure (SMILES)
7.48 | 7.55 |  |  | Cc1cc(Cl)ccc1-c1ccc(NC(=O)c2ccc(Cl)cc2-c2ccc(C(=O)NCCC(=O)O)nc2)cc1 [Compound 153, 3-(5-(5-chloro-2-((4′-chloro-2′-methyl-[1,1′-biphenyl]-4-yl)carbamoyl)phenyl)picolinamido)propanoic acid]
7.53 | 6.76 |  |  | O=C(O)CCNC(=O)c1ccc(-c2cc(C(F)(F)F)ccc2CNc2ccc(-c3ccc(F)c(C(F)(F)F)c3)cc2)cn1 [Compound 26, 3-(5-(2-(((4′-fluoro-3′-(trifluoromethyl)-[1,1′-biphenyl]-4-yl)amino)methyl)-5-(trifluoromethyl)phenyl)picolinamido)propanoic acid]
7.54 | 7.32 |  |  | O=C(O)CCNC(=O)c1ccc(-c2cc(C(F)(F)F)c(Cl)cc2CNc2ccc(-c3ccc(Cl)cc3)cc2)cn1 [Compound 80, 3-(5-(4-chloro-2-(((4′-chloro-[1,1′-biphenyl]-4-yl)amino)methyl)-5-(trifluoromethyl)phenyl)picolinamido)propanoic acid]
7.58 | 7.32 |  |  | O=C(O)CCNC(=O)c1ccc(-c2cc(C(F)(F)F)ccc2CNc2ccc(-c3ccc(C(F)(F)F)c(F)c3)c(Cl)c2)cn1 [Compound 39, 3-(5-(2-(((2-chloro-3′-fluoro-4′-(trifluoromethyl)-[1,1′-biphenyl]-4-yl)amino)methyl)-5-(trifluoromethyl)phenyl)picolinamido)propanoic acid]
7.60 | 7.65 |  |  | Cc1cc(Cl)ccc1-c1ccc(NCc2ccc(C(F)(F)F)cc2-c2ccc(C(=O)NCCC(=O)O)nc2)cc1 [Compound 22, 3-(5-(2-(((4′-chloro-2′-methyl-[1,1′-biphenyl]-4-yl)amino)methyl)-5-(trifluoromethyl)phenyl)picolinamido)propanoic acid]
7.62 | 7.34 |  |  | O=C(O)CCNC(=O)c1ccc(-c2cc(C3CCCCC3)ccc2CNc2ccc(-c3ccc(F)cc3)cc2)cn1 [Compound 175, 3-(5-(5-cyclohexyl-2-(((4′-fluoro-[1,1′-biphenyl]-4-yl)amino)methyl)phenyl)picolinamido)propanoic acid]
7.67 | 7.76 |  |  | O=C(O)CCNC(=O)c1ccc(-c2cc(C(F)(F)F)ccc2CNc2ccc(-c3ccc(Cl)cc3Cl)c(Cl)c2)cn1 [Compound 27, 3-(5-(2-(((2,2′,4′-trichloro-[1,1′-biphenyl]-4-yl)amino)methyl)-5-(trifluoromethyl)phenyl)picolinamido)propanoic acid]
7.70 | 6.90 |  |  | CC(C)c1ccc(CNc2ccc(-c3ccc(F)cc3)cc2)c(-c2ccc(C(=O)NCCC(=O)O)nc2)c1 [Compound 158, 3-(5-(2-(((4′-fluoro-[1,1′-biphenyl]-4-yl)amino)methyl)-5-isopropylphenyl)picolinamido)propanoic acid]
7.71 | 6.94 |  |  | O=C(O)CCNC(=O)c1ccc(-c2cc(Cl)ccc2CNc2ccc(-c3ccc(Cl)cc3Cl)c(F)c2)cn1 [Compound 92, 3-(5-(5-chloro-2-(((2′,4′-dichloro-2-fluoro-[1,1′-biphenyl]-4-yl)amino)methyl)phenyl)picolinamido)propanoic acid]
7.71 | 7.71 |  |  | Cc1cc(C(F)(F)F)ccc1-c1ccc(NCc2ccc(C(F)(F)F)cc2-c2ccc(C(=O)NCCC(=O)O)nc2)cc1 [Compound 30, 3-(5-(2-(((2′-methyl-4′-(trifluoromethyl)-[1,1′-biphenyl]-4-yl)amino)methyl)-5-(trifluoromethyl)phenyl)picolinamido)propanoic acid]
7.76 | 7.66 |  |  | Cc1cc(C(F)(F)F)ccc1-c1ccc(NCc2ccc(C(F)(F)F)cc2-c2ccc(C(=O)NCCC(=O)O)nc2)cc1Cl [Compound 43, 3-(5-(2-(((2-chloro-2′-methyl-4′-(trifluoromethyl)-[1,1′-biphenyl]-4-yl)amino)methyl)-5-(trifluoromethyl)phenyl)picolinamido)propanoic acid]
7.78 | 6.95 |  |  | Cc1cc(F)ccc1-c1ccc(NCc2ccc(Cl)cc2-c2ccc(C(=O)NCCC(=O)O)nc2)cc1 [Compound 151, 3-(5-(5-chloro-2-(((4′-fluoro-2′-methyl-[1,1′-biphenyl]-4-yl)amino)methyl)phenyl)picolinamido)propanoic acid]
